The source of these data is patent US6348477B1, “Anti-herpesvirus compounds and methods for identifying, making and using same” (Boehringer Ingelheim(Canada) Ltd., priority 1995, dated 2002).

The subject of series [1] is HCMV (strain AD169). In words: Inhibition of HCMV replication, plaque reduction assay (PRA, Hs-68 cells). Type of series: cell-based, human cytomegalovirus. The settings on record: Group 1 Table 1, read-out: PRA CMV EC50. Here is the method: (§1) C) Inhibition of Human Cytomegalovirus (HCMV) replication
(§2) The effect of compounds on the replication of HCMV has been measured by using an ELISA-based assay (ELISA) and a plaque reduction assay (PRA).
Hs-68 cells ( ATCC # CRL 1635) were seeded in 12-well plates at 83,000 cells/well in 1 mL of DMEM medium (Gibco Canada Inc.) supplemented with 10% fetal bovine serum (FBS, Gibco Canada Inc.). The plates were incubated for 3 days at 37° to allow the cells to reach 80-90% confluency prior to the assay.
The medium was removed from the cells by aspiration. The cells were then infected with approximately 50 PFU of HCMV (strain AD169, ATCC VR-538) in DMEM medium supplemented with 5% inactivated FBS (assay medium). The virus was allowed to adsorb to cells for 2 h at 37°. Following viral adsorption, the medium was removed from the wells by aspiration. The cells were then incubated with or without 1 mL of appropriate concentrations of test reagent in assay medium. After 4 days of incubation at 37°, the medium was exchanged with fresh medium containing test compound and 4 days later the cells were fixed with 1% aqueous formaldehyde and stained with a 2% crystal violet solution in 20% ethanol in water. Microscopic plaques were counted using a stereomicroscope. Drug effects were calculated as a percent reduction in the number of plaques in the presence of each drug concentration compared to the number observed in the absence of drug. Ganciclovir was used as a positive control in all experiments.
The EC50 values obtained according to this assay for certain thiazolyl derivatives of this invention are listed in the following tables under the heading PRA CMV.

Series [2] concerns HCMV (strain AD169). In words: Inhibition of HCMV replication, ELISA assay (Hs-68 cells, p28). Type of series: cell-based, human cytomegalovirus. The settings on record: Human betaherpesvirus 5, AD169, Hs68; Group 1 Table 1; read-out: ELISA CMV EC50. How it is done:
as §1, §2
Hs-68 cells (ATCC # CRL 1635) were seeded in 96 well microtiter plates at 10,000 cells/well in 100 μL of DMEM medium (Gibco Canada Inc.) supplemented with 10% fetal bovine serum (FBS, Gibco Canada Inc.). The plates were incubated for 3 days at 37° to allow the cells to reach 80-90% confluency prior to the assay.
The medium was removed from wells by aspiration. The cells then were infected at a multiplicity of infection (MOI) of 0.01 PFU/cell with 50 μL of HCMV (strain AD169, ATCC VR-538) in DMEM medium supplemented with 5% heat inactivated FBS (assay medium). The virus was allowed to adsorb to cells for 2 h at 37°. Following viral adsorption, the medium was removed from the wells by aspiration. The cells were washed twice with 200 μL of assay medium to remove unabsorbed virus. The cells were then incubated with or without 100 μL of appropriate concentrations of test reagent in assay medium. After 8 days of incubation at 37°, the extent of viral replication was determined by an ELISA assay which detects the late structural protein p28 of HCMV.
Eight days after infection, the medium was aspirated from the wells. Non-specific binding sites were blocked by adding 200 μL of phosphate buffered saline containing 1% (w/v) bovine serum albumin (blocking buffer) to each well and incubating the plates for 30 min at room temperature. After removal of the blocking buffer by aspiration, the cells were fixed with 100 μL of cold ethanol-acetone solution (95:5) per well. The plates were placed at −20° for 30 min. The plates were washed 4 times with phosphate buffered saline containing 0.05% (v/v) polyoxyethylene sorbitan monolaurate (Tween 20®). Thereafter, 100 μL of mAb UL99 (Advanced Biotechnologies Inc., #13-130-100) recognizing HCMV protein p28 was added to each wells and plates were incubated for 2 h at room temperature. The plates were washed four times with 200 μL of the above-noted phosphate buffered saline/Tween-20® solution. The cells were then incubated with 100 μL of sheep anti-mouse IgGγ horseradish peroxidase conjugated for 2 h at room temperature. The plates were then washed four times with 200 μL of above-noted phosphate buffered saline/Tween-20®solution. Thereafter, 100 μL of ortho phenylenediamine dihydrochloride (OPD, Gibco Canada Inc.) solution was added to each well and the plates were agitated on a microplate shaker for 30 min in the dark. Color development was monitored at 450 nm using a microplate spectrophotometer.
The SAS program was used to calculate the % inhibition of viral replication and to generate EC50 values.
The EC50 values obtained according to this assay method for certain thiazolylphenyl derivatives of this invention are listed in the following tables under the heading ELISA CMV.
On the technique in general: An ELISA detects its analyte on a solid surface through an enzyme-linked reagent.

Series [3] addresses T1, HSV-1 helicase-primase (Human herpesvirus 1, UniProt P10189+P10236).
T1 construct: made in house; host or cells: Sf21 insect cells triply infected with recombinant baculoviruses
In words: HSV-1 DNA-dependent ATPase assay (inhibition of HSV-1 helicase-primase). Type of series: biochemical. Particulars: Group 1 Table 1. From the text: A) HSV-1 DNA-Dependent ATP Assay (an in Vitro Assay Based on the Inhibition of HSV-1 Helicase-primase).
a) Preparation of enzyme: HSV-1 helicase-primase holoenzyme was produced in triply infected Sf21 cells using recombinant baculoviruses expressing the UL5, UL8 and UL52 helicase-primase subunits, as described by S. Dracheva et al., J. Biol. Chem. 1995, 270, 14148. The crude enzyme was purified by ammonium sulfate precipitation, Source 15Q® chromatography and Sephacryl® S-300 HR gel filtration (both purification systems can be obtained from Pharmacia Biotech Inc., Montreal, Quebec, Canada), see S. Dracheva et al., supra.
b) Assay: The DNA-dependent ATPase assay, described by J. J. Crute et al., Nucleic Acids Res. 1988, 16, 6585, was modified and used to evaluate the capability of the compounds of Group 1-formula 1 to inhibit HSV-1 helicase-primase activity. The reaction mixtures (80 μL each) contained 40 mM 4-(2-hydroxyethyl)-1-piperazineethanesulfonic acid (HEPES, pH 7.5), 10% (v/v) glycerol, 5.5 mM MgCl2, 1 mM DL-dithiothreitol (DTT), 50 μg/mL acetylated bovine serum albumin, 3.3% (v/v) DMSO, 4 mM ATP, 25 μM single-stranded M13 DNA hybridized to double-tailed 68-mer oligonucleotide and 3 μg/mL HSV-1 helicase-primase. After incubation for 20 min at 34°, formation of inorganic phosphate from hydrolysis of ATP was monitored spectrophotometrically at 650 nm using acidic ammonium molybdate/malachite green reagent, P. A. Lanzetta et al., Anal. Biochem. 1979, 100, 95. DNA-dependent ATPase activity was calculated from the net absorbance change in the presence and absence of inhibition.

The mark [4] stands for this setting: Human betaherpesvirus 5, AD169, Hs68.

Some results are limits rather than exact numbers.

T1 sequence (P10189 whole entry): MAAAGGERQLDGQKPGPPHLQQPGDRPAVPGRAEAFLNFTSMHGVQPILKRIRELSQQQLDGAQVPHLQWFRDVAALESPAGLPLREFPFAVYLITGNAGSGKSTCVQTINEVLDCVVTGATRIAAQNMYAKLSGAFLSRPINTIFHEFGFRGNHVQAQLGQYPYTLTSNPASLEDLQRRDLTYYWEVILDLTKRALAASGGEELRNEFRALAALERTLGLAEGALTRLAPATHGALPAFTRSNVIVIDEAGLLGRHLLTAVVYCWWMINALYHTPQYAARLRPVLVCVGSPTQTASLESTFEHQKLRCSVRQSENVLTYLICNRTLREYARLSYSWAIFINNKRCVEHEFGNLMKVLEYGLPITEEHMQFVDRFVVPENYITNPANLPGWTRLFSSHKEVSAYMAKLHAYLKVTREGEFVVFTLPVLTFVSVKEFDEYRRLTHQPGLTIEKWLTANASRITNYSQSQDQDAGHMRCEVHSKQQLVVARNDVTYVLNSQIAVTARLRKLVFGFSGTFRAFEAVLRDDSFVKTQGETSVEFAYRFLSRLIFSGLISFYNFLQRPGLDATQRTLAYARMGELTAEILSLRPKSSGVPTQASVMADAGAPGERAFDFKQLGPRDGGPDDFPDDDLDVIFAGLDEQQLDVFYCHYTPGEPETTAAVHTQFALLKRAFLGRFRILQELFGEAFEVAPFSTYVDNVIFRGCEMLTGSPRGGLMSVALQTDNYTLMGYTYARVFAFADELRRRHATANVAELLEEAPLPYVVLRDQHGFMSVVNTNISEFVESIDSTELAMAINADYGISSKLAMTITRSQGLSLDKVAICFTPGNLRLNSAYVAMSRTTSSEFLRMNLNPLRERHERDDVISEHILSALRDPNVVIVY
T1 sequence (P10192 whole entry, further chain): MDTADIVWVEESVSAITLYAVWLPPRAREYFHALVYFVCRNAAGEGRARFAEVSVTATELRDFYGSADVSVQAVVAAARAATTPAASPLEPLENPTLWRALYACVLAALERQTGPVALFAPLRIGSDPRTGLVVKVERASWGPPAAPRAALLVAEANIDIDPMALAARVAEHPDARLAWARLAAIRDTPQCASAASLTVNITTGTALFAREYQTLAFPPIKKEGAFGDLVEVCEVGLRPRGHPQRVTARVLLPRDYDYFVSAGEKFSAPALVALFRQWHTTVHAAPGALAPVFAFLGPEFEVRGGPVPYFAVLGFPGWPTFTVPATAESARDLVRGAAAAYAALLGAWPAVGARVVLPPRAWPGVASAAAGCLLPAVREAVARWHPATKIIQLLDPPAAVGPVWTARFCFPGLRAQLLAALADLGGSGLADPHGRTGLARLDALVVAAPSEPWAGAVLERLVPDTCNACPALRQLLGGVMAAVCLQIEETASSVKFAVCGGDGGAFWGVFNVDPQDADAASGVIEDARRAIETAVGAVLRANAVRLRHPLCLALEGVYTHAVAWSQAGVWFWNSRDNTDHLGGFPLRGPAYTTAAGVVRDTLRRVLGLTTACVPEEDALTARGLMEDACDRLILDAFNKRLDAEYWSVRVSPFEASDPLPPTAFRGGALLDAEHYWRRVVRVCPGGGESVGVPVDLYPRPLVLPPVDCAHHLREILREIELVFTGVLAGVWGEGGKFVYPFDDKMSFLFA
T1 sequence (P10236 whole entry): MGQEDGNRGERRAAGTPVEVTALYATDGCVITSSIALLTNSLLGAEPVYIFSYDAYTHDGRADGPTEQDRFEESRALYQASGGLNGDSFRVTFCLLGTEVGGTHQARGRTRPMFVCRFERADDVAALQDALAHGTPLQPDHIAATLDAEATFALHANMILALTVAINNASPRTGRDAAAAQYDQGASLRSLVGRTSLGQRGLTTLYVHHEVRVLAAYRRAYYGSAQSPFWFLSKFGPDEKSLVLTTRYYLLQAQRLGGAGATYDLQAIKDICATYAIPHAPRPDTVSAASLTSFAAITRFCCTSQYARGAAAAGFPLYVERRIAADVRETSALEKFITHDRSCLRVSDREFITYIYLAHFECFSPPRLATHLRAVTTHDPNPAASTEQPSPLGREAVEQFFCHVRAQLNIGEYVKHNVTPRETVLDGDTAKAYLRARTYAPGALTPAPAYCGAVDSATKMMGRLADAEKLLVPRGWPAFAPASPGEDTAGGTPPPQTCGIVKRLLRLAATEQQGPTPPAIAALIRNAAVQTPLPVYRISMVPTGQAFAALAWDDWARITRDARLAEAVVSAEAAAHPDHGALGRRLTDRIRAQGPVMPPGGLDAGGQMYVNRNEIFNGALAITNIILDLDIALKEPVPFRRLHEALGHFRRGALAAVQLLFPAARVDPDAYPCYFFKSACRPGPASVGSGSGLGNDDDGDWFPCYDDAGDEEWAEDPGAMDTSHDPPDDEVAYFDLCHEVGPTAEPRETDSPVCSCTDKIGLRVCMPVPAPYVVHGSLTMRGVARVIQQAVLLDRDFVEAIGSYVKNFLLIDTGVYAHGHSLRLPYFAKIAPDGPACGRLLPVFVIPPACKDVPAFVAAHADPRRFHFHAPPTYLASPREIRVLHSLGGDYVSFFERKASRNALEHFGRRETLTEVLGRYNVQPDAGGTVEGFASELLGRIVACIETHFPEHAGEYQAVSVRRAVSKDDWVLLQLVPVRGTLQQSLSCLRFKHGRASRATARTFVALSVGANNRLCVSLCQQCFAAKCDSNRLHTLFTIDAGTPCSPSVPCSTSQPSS

Usually melting point stands for the temperature of the solid-liquid transition. Take `Nc1nc(-c2ccc(NC(=O)CNCC3CCCCC3)cc2)cs1` [Example 3, N-{4-(2-Amino-4-thiazolyl)phenyl}-2-{(cyclohexyl-methyl)amino}acetamide]: the melting point fell in the range of 164 to 166 °C.
`Nc1nc(-c2ccc(NC(=O)CCNCc3ccccc3)cc2)cs1` [Example 8, N-{4-(2-Amino-4-thiazolyl)phenyl}-3-{(phenylmethyl)-amino}propanamide] returned a melting point of 131 to 133 °C.
For orientation: EC50 means the concentration needed to bring the measured effect to its halfway point. Usually IC50 stands for the concentration that inhibits the measured activity by half. Consider `Nc1nc(-c2ccc(NC(=O)CN(Cc3ccccc3)S(=O)(=O)N3CCOCC3)cc2)cs1` [Example 96], for which the EC50 in series [1] (setting [4]) was determined as 12 µM; in series [2], 0.35 µM. The same compound yielded an IC50 in series [3] of 0.29 µM.
Turning to `Cc1cc(C)nc(SCC(=O)N(CC(=O)Nc2ccc(-c3csc(N)n3)cc2)Cc2ccccc2)n1` [Example 122], in series [1], the EC50 worked out at 3.3 µM.
As to `Nc1nc(-c2ccc(NC(=O)CN(CC3CCCCC3)C(=O)C3CCNCC3)cc2)cs1` [Example 62], the “inhibition of HSV-1 helicase-primase” value in series [3] (at 50 μM) stood at 29% inhi- bition at 50 μM.
For the compound `CC(C)CN(CC(=O)Nc1ccc(-c2csc(N)n2)cc1)C(=O)C1CCCCC1` [Example 81], the EC50 in series [2] stood at 14 µM. Also, the IC50 in series [3] worked out at 0.48 µM.
For the compound `CN1CCC(C(=O)N(CC(=O)Nc2ccc(-c3csc(N)n3)cc2)CC2CCCCC2)CC1` [Example 138], in series [2], the EC50 came to 31.6 µM. The IC50 in series [3] was above 50 µM.
For `Nc1nc(-c2ccc(NC(=O)CN(Cc3ccc(Cl)cc3)C(=O)c3ccncc3)cc2)cs1` [Example 55], in that order: 11.9 µM and 0.57 µM.
For `CC(C)(C)OC(=O)N(CC(=O)Nc1ccc(-c2csc(N)n2)cc1)CC1CCCCC1` [Example 100], in that order: 14 µM and 0.76 µM.
With `CC(C)CN(CC(=O)Nc1ccc(-c2csc(N)n2)cc1)C(=O)OC(C)(C)C` [Example 112], in series [3], the IC50 is 1.8 µM.
Same read-out and setting: to `C[C@@H](C1CCCCC1)N(CC(=O)Nc1ccc(-c2csc(N)n2)cc1)C(=O)OC(C)(C)C` [Example 108] belongs 0.46 µM; to `[N-]=[N+]=Nc1ccc(C(=O)N(CC(=O)Nc2ccc(-c3csc(N)n3)cc2)Cc2ccncc2)cc1` [Example 78], 1 µM.
For `C[C@@H](c1ccccc1)N(CC(=O)Nc1ccc(-c2csc(N)n2)cc1)C(=O)Cc1ccccn1` [Example 135], the EC50 in series [1] (setting [4]) stood at 38 µM. Further, the IC50 in series [3] is 0.78 µM.
As to `Cc1ccccc1CN(CC(=O)Nc1ccc(-c2csc(N)n2)cc1)C(=O)c1ccncc1` [Example 102], the EC50 in series [1] (setting [4]) amounted to 18 µM; in series [2] it was 11 µM. The same compound had an IC50 in series [3] of 0.19 µM.
As to `Nc1nc(-c2ccc(NC(=O)CN(Cc3ccc(Cl)cc3)C(=O)CC3CCCCC3)cc2)cs1` [Example 69], in series [1] (setting [4]), the EC50 was 8 µM. The IC50 in series [3] is 0.43 µM.
With `CC(c1ccccc1)N(CC(=O)Nc1ccc(-c2csc(N)n2)cc1)C(=O)c1ccncc1` (stereo not shown) [Example 137], the EC50 in series [1] was 49 µM. Besides, in series [3], the IC50 came to 0.98 µM.
Take `Nc1nc(-c2ccc(NC(=O)CN(CC3CCCCC3)C(=O)c3ccncc3)cc2)cs1` [Example 57]: the EC50 in series [1] (setting [4]) stood at 15.8 µM; in series [2], 2.6 µM. This compound came in with an IC50 in series [3] of 3.9 µM.
Turning to `C[C@@H](c1ccccc1)N(CC(=O)Nc1ccc(-c2csc(N)n2)cc1)C(=O)NC(C)(C)C` [Example 105], the EC50 in series [2] stood at 11 µM. This compound also had an IC50 in series [3] of 0.7 µM.
As for `Nc1nc(-c2ccc(NC(=O)CN(Cc3ccccc3)C(=O)Cc3ccncc3)cc2)cs1` [Example 114], in series [1] (setting [4]), the EC50 was determined as 23 µM. In addition, the IC50 in series [3] was 0.8 µM.
With `Nc1nc(-c2ccc(NC(=O)CN(CCc3ccccc3)C(=O)C3CCCCC3)cc2)cs1` [Example 68], the EC50 in series [2] was above 5 µM. This compound also registered an IC50 in series [3] of 0.18 µM.
`CN(C(=O)N(CC(=O)Nc1ccc(-c2csc(N)n2)cc1)Cc1ccccc1)C(C)(C)C` [Example 94]: the EC50 in series [1] (setting [4]) is above 24 µM; in series [2] it was above 8 µM. The concentration for half-maximal inhibition (IC50) in series [3] was determined as 0.026 µM.
As for `CC(C)(C)NC(=O)N(CC(=O)Nc1ccc(-c2csc(N)n2)cc1)Cc1ccccc1` [Example 92], the figures for the EC50 in series [1] (setting [4]) and in series [2] were 65 µM and 0.9 µM, respectively. For the same compound, in series [3], the IC50 amounted to 0.076 µM.
For the compound `CC(C)COC(=O)N(CC(=O)Nc1ccc(-c2csc(N)n2)cc1)Cc1ccccc1` [Example 86], the EC50 in series [1] (setting [4]) was 24 µM; in series [2], 3.8 µM. The same compound registered an IC50 in series [3] of 0.17 µM.
Consider `Nc1nc(-c2ccc(NC(=O)CN(Cc3ccc(F)cc3)C(=O)C3CCCCC3)cc2)cs1` [Example 83], for which the EC50 in series [2] was 8.1 µM. Besides, the IC50 in series [3] is 0.042 µM.
`Nc1nc(-c2ccc(NC(=O)CN(Cc3ccccc3)C(=O)N3CCOCC3)cc2)cs1` [Example 95]: the EC50 is 90 µM in series [1] (setting [4]) and 57 µM in series [2]. Inhibition in series [3] was half-maximal at 0.14 µM (IC50).
Consider `Nc1nc(-c2ccc(NC(=O)CN(CC3CCCCC3)C(=O)CC3CCCC3)cc2)cs1` [Example 75], for which the 50% effective concentration (EC50) in series [2] was found to be 48 µM. In addition, it took 0.21 µM to reach half-maximal inhibition in series [3] (IC50).
With `CC(c1ccccc1)N(CC(=O)Nc1ccc(-c2csc(N)n2)cc1)C(=O)Cc1ccccn1` (stereo not shown) [Example 136], in series [1], the EC50 was found to be 31 µM. Moreover, in series [3], the IC50 was determined as 4.2 µM.
For `Cc1cccc(C)c1OCC(=O)N(CC(=O)Nc1ccc(-c2csc(N)n2)cc1)Cc1ccccc1` [Example 121], in that order: above 31 µM and 0.49 µM.
The compound `CC(C)(C)OC(=O)N1CCC(C(=O)N(CC(=O)Nc2ccc(-c3csc(N)n3)cc2)CC2CCCCC2)CC1` [Example 61] registered a 50% inhibitory concentration (IC50) in series [3] of 4.4 µM.
For `CC(c1ccccc1)N(CC(=O)Nc1ccc(-c2csc(N)n2)cc1)C(=O)c1cccnc1` (stereo not shown) [Example 134], the EC50 in series [1] was 18 µM. It took 0.26 µM to reach half-maximal inhibition in series [3] (IC50).
As for `Nc1nc(-c2ccc(NC(=O)CN(Cc3ccccc3F)C(=O)c3ccncc3)cc2)cs1` [Example 118], in series [1] (setting [4]), the EC50 turned out to be 60 µM. This compound also showed an IC50 in series [3] of 0.047 µM.
